Values quoted from earlier work in patent publication US20220235034A1, “SELECTIVE HISTAMINE H3 RECEPTOR ANTAGONISTS FOR TREATING AUTISM SPECTRUM DISORDER” (RICHTER GEDEON NYRT., priority 2019, published 2022).

Assays:
histamine H3 receptor [1] = target: T1, histamine H3 receptor (Homo sapiens, UniProt Q9Y5N1); details: according to WO 2014/136075A1; cited from earlier work
histamine H3 receptor [2] = target: T1, histamine H3 receptor; details: cited from earlier work
histamine H3 receptor [3] = target: T2, histamine H3 receptor (Rattus norvegicus, UniProt Q9QYN8); details: in vivo in rats; cited from earlier work
T2 construct: from tissue; host or cells: living rat (in vivo)
T2 sequence (Q9QYN8 whole entry): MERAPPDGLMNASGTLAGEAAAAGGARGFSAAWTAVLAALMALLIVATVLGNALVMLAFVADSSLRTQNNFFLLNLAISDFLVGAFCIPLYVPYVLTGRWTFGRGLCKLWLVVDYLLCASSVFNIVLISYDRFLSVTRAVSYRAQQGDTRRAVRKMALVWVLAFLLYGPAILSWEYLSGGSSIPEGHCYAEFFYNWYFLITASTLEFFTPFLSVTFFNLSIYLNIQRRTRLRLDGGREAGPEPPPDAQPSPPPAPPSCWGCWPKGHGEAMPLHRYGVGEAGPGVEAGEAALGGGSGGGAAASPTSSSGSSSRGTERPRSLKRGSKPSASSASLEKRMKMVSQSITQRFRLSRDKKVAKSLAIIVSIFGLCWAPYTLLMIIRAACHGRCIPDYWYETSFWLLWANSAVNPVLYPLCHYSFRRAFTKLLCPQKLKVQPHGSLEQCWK

[4] = tested on: prenatally VPA-exposed mice; details: cited from earlier work
[5] = target: T3, human monoamine oxidase A (Homo sapiens, UniProt P21397); details: cited from earlier work
T3 sequence (P21397 1-527): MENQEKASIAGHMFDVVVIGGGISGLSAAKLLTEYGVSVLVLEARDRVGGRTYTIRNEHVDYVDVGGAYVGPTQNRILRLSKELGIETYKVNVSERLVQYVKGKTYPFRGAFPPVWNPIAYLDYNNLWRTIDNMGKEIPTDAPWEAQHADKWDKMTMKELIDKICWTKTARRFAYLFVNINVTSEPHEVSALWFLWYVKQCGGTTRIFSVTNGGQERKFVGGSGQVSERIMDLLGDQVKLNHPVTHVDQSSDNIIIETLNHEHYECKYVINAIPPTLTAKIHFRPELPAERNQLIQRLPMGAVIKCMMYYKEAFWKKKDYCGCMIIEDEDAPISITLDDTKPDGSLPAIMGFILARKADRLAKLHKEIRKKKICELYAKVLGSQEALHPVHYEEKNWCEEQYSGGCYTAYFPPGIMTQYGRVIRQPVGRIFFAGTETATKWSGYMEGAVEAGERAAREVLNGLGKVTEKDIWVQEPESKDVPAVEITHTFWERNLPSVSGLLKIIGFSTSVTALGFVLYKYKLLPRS

[6] = target: T4, human monoamine oxidase B (Homo sapiens, UniProt P27338); details: cited from earlier work
T4 sequence (P27338 1-520): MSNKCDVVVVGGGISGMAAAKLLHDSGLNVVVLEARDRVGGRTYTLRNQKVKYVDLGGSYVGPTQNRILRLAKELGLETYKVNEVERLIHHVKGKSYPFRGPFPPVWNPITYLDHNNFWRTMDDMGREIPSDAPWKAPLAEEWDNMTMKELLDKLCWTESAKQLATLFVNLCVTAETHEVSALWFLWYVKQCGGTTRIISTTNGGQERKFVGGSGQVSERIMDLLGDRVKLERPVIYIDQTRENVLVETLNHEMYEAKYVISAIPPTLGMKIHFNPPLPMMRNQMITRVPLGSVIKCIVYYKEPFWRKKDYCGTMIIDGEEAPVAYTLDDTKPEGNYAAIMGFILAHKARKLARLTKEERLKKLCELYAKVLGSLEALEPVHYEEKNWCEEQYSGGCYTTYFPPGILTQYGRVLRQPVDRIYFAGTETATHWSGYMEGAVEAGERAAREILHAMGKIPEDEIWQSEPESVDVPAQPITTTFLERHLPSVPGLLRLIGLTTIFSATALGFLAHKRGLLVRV

rat monoamine oxidase A = target: T5, rat monoamine oxidase A (Rattus norvegicus, UniProt P21396); details: cited from earlier work
T5 sequence (P21396 1-526): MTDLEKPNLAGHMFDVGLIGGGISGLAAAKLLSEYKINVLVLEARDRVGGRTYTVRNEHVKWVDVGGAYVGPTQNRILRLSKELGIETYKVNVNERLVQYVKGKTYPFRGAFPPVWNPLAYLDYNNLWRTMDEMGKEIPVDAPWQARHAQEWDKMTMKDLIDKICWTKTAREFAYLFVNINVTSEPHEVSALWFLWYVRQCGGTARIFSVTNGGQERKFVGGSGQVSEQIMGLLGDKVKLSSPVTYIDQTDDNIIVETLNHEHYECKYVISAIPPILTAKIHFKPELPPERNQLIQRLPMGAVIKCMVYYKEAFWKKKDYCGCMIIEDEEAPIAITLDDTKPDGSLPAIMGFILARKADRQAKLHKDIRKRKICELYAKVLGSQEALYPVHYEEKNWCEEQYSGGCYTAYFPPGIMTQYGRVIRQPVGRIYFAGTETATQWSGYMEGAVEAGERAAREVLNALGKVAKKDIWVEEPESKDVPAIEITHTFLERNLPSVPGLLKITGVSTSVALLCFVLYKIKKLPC

rat monoamine oxidase B = target: T6, rat monoamine oxidase B (Rattus norvegicus, UniProt P19643); details: cited from earlier work
T6 sequence (P19643 1-520): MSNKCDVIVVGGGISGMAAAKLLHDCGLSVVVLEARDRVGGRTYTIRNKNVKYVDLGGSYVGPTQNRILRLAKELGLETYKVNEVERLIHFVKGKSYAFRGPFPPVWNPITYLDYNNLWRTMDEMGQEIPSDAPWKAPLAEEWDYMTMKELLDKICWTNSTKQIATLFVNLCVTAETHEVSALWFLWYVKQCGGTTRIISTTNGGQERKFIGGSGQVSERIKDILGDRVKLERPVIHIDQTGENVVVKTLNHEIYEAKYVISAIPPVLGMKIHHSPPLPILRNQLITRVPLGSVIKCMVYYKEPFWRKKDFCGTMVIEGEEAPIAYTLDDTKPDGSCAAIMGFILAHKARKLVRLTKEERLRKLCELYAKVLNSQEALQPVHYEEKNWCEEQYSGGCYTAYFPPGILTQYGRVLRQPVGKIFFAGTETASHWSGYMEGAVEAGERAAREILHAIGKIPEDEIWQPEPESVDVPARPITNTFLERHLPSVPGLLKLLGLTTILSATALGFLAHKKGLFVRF

[7] = 3 mg/kg intraperitoneally; cited from earlier work
prenatal VPA model = details: in vivo; cited from earlier work
ASD subjects = details: humans; cited from earlier work
[8] = 3 mg/kg intraperitoneally, prenatal valproate model in mice

T1 sequence (Q9Y5N1 whole entry, species assumed): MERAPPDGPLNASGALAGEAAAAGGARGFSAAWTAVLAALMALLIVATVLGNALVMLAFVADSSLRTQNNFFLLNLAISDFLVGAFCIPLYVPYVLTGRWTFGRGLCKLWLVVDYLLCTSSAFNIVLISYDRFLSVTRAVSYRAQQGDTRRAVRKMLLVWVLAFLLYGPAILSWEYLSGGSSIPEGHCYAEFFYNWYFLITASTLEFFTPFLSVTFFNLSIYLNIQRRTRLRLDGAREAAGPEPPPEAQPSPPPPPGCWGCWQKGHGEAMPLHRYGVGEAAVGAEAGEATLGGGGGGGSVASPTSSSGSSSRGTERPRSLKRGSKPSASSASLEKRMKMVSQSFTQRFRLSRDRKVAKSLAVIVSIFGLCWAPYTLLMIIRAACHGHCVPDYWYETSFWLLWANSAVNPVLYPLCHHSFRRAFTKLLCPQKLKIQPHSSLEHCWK

SMILES: CC(=O)N1CCC(Oc2ccc(OCCCN3CCC[C@H]3C)cc2)CC1 [Compound of Formula 1, 1-[4-(4-{3-[(2R)-2-methylpyrrolidin-1-yl]-propoxy}-phenoxy)-piperidin-1-yl]-ethan-1-on]
- affinity for histamine H3 receptor (histamine H3 receptor [1]): high affinity
- selectivity for histamine H3 receptor (histamine H3 receptor [1]): highly selective
- functional behaviour in vitro (histamine H3 receptor [2]): receptor antagonist/inverse agonist
- histamine H3 receptor antagonism in vivo (histamine H3 receptor [3]): shows histamine H3 receptor antagonism in vivo

SMILES: O=C(c1ccc(OCCCc2cnc[nH]2)cc1)C1CC1 [ciproxifan]
- excessive repetitive behavior [4, 8]: improved
- social deficits [4, 8]: improved
- social novelty preference ([4]; prenatally VPA-exposed mice): did not have an effect
- inhibition of monoamine oxidase A, concentration range [5]: micromolar concentration range
- preference between monoamine oxidase A and B ([6]; human and rat enzymes): slight preference for monoamine oxidase B
- inhibition of monoamine oxidase B, concentration range ([6]; human): micromolar concentration range
- inhibition of monoamine oxidase A, concentration range (rat monoamine oxidase A): micromolar concentration range
- inhibition of monoamine oxidase B, concentration range (rat monoamine oxidase B): micromolar concentration range
- plasma exposures [7]: micromolar range

SMILES: CC[C@H](C)[C@@H]1NC(=O)[C@H](Cc2ccc(O)cc2)NC(=O)[C@@H](N)CSSC[C@@H](C(=O)N2CCC[C@H]2C(=O)N[C@@H](CC(C)C)C(=O)NCC(N)=O)NC(=O)[C@H](CC(N)=O)NC(=O)[C@H](CCC(N)=O)NC1=O [oxytocin]
- behavioral impairments in the prenatal VPA model (prenatal VPA model): improve behavioral impairments
- efficacy signals in ASD subjects (ASD subjects): produced efficacy signals
